Reference: PMC9608490, “Design, Synthesis, Crystal Structure, In Vitro and In Silico Evaluation of New N′-Benzylidene-4-tert-butylbenzohydrazide Derivatives as Potent Urease Inhibitors” (Molecules, 2022)

Biological target: Jack bean urease (Canavalia ensiformis, UniProt P07374)
Assay: In vitro urease inhibition assay
Type: biochemical
Description: The measurement of urease inhibitory activity was carried out according to the literature method. The assay mixture containing 75 μL of Jack bean urease and 75 μL of tested compounds with various concentrations (dissolved in DMSO) was pre-incubated for 15 min on a 96-well assay plate. Acetohydroxamic acid was used as a reference. Then 75 μL of phosphate buffer at pH 6.8 containing phenol red (0.18 mmol·L^−1) and urea (400 mmol·L^−1) were added and incubated at room temperature. The reaction time required for enough ammonium carbonate to form to raise the pH phosphate buffer from 6.8 to 7.7 was measured by a microplate reader (560 nm), with the end-point being determined by the color change of the phenol-red indicator.

Chain of Jack bean urease (P07374 whole entry, looked up): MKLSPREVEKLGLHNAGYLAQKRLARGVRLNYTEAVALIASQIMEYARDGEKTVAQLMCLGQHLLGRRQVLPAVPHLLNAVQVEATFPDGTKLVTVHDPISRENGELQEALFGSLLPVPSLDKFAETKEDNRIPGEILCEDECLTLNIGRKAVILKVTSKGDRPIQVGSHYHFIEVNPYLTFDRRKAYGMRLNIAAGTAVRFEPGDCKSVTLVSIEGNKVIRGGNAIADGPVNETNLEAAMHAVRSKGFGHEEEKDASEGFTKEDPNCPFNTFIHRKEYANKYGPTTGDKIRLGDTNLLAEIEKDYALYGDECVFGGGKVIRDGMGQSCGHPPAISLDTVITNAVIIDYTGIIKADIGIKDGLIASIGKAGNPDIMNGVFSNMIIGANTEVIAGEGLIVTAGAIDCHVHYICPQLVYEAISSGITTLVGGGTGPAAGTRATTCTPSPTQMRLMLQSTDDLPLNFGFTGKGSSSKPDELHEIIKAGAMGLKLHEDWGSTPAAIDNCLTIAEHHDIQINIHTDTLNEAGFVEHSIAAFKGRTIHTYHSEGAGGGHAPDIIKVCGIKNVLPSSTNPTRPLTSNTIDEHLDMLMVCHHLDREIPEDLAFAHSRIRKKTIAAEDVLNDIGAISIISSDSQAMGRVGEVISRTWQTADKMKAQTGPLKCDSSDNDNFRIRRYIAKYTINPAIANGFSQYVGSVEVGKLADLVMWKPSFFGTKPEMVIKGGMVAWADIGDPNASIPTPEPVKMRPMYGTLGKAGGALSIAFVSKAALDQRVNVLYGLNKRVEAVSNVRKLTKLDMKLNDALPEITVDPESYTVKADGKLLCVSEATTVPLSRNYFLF

SMILES	IC50 [µM]
COc1cc(C=NNC(=O)c2ccc(C(C)(C)C)cc2)ccc1F [Compound 4, 4-(Tert-butyl)-N′-(4-fluoro-3-methoxybenzylidene)benzohydrazide]	88.8 ± 7.71
COc1cccc(/C=N/NC(=O)c2ccc(C(C)(C)C)cc2)c1O [Compound 5, 4-(t-But)-N′-(2-Hydroxy-3-methoxybenzylidene)benzohydrazide]	56.6 ± 3.18
CC(C)(C)c1ccc(C(=O)NN=Cc2c3ccccc3cc3ccccc23)cc1 [Compound 6, N′-(Anthracen-9-ylmethylene)-4-(tert-butyl)benzohydrazide]	13.3 ± 0.58
COc1ccc(Br)cc1C=NNC(=O)c1ccc(C(C)(C)C)cc1 [Compound 7, N′-(5-Bromo-2-methoxybenzylidene)-4-(t-But)benzohydrazide]	64.5 ± 3.97
CC(C)(C)c1ccc(C(=O)NN=Cc2ccc(O)c(O)c2)cc1 [Compound 8, N′-(3,4-Dihydroxybenzylidene)-4-tert-butylbenzohydrazide]	80 ± 7.43
COc1ccc(C=NNC(=O)c2ccc(C(C)(C)C)cc2)c(OC)c1OC [Compound 9, N′-(2,3,4-Trimethoxybenzylidene)-4-tert-butylbenzohydrazide]	63.5 ± 3.97
CC(C)(C)c1ccc(C(=O)NN=Cc2cc([N+](=O)[O-])ccc2Cl)cc1 [Compound 10, 4-(Tert-butyl)-N′-(2-chloro-5-nitrobenzylidene)benzohydrazide]	63.5 ± 3.97
CCOc1ccc(C=NNC(=O)c2ccc(C(C)(C)C)cc2)c(OC)c1 [Compound 11, 4-(Tert-butyl)-N′-(4-ethoxy-2-methoxybenzylidene)benzohydrazide]	63.5 ± 2.97
CC(C)(C)c1ccc(C(=O)NN=Cc2cccc(O)c2)cc1 [Compound 12, 4-(Tert-butyl)-N′-(3-hydroxybenzylidene)benzohydrazide]	39.6 ± 11.5
COc1cc(C=NNC(=O)c2ccc(C(C)(C)C)cc2)cc(OC)c1OC [Compound 13, 4-(Tert-butyl)-N′-(3,4,5-trimethoxybenzylidene)benzohydrazide]	80.9 ± 7.43
CN(C)c1ccc(C=NNC(=O)c2ccc(C(C)(C)C)cc2)cc1 [Compound 14, 4-(Tert-butyl)-N′-(4-(dimethylamino)benzylidene)benzohydrazide]	81.2 ± 7.4
CC(C)(C)c1ccc(C(=O)NN=Cc2ccc(Cl)cc2Cl)cc1 [Compound 15, 4-(Tert-butyl)-N′-(2,4-dichlorobenzylidene)benzohydrazide]	82.2 ± 7.43
CC(C)(C)c1ccc(C(=O)NN=Cc2cc(C(C)(C)C)c(O)c(C(C)(C)C)c2)cc1 [Compound 16, 4-(Tert-butyl)-N′-(3,5-di-tert-butyl-4-hydroxybenzylidene)benzohydrazide]	79 ± 7.53
CC(C)(C)c1ccc(C(=O)NN=Cc2cc(Cl)cc(Cl)c2O)cc1 [Compound 17, N′-(3,5-Dichloro-2-hydroxybenzylidene)-4-tert-butylbenzohydrazide]	27.5 ± 1.65
CC(C)(C)c1ccc(C(=O)NN=Cc2ccc([N+](=O)[O-])cc2)cc1 [Compound 18, N′-(4-Nitrobenzylidene)-4-tert-butylbenzohydrazide]	66.1 ± 1.79
COc1cccc(OC)c1C=NNC(=O)c1ccc(C(C)(C)C)cc1 [Compound 19, 4-(Tert-butyl)-N′-(2,6-dimethoxybenzylidene)benzohydrazide]	67.5 ± 4.16
CC(C)(C)c1ccc(C(=O)N/N=C/c2ccc(O)cc2)cc1 [Compound 20, 4-(t-But)-N′-(4-Hydroxybenzylidene)benzohydrazide]	51.4 ± 11.5
COc1cc(OC)c(C=NNC(=O)c2ccc(C(C)(C)C)cc2)c(OC)c1 [Compound 21, N′-(2,4,6-Trimethoxybenzylidene)-4-tert-butylbenzohydrazide]	71.3 ± 2.47
CC(C)(C)c1ccc(C(=O)N/N=C/c2ccc(Cl)c(O)c2Cl)cc1 [Compound 22]	38.6 ± 11.5
COc1cc(C=NNC(=O)c2ccc(C(C)(C)C)cc2)ccc1O [Compound 23]	252 ± 6.82
CC(C)(C)c1ccc(C(=O)N/N=C/c2ccccc2O)cc1 [Compound 24, 4-(t-But)-N′-(2-Hydroxybenzylidene)benzohydrazide]	37.5 ± 12.5
COc1ccc(/C=N/NC(=O)c2ccc(C(C)(C)C)cc2)cc1OC [Compound 25, 4-(t-But)-N′-(3,4-Dimethoxybenzylidene)benzohydrazide]	13.4 ± 0.33
CC(C)(C)c1ccc(C(=O)N/N=C/c2cc(C(C)(C)C)cc(C(C)(C)C)c2O)cc1 [Compound 26, 4-(t-But)-N′-(3,5-Di-tert-butyl-2-hydroxybenzylidene)benzohydrazide]	49.5 ± 12.7
